Usually bioavailability stands for dose-corrected exposure relative to a reference, in per cent.

Data set [1] in a line: particle size by Coulter DELSA 440. Type of data set: physicochemical. The source says: Oxcarbazepine, an antiepileptic drug marketed as Trileptal® by Novartis, is a white crystalline powder practically insoluble in water. Oxcarbazepine (100%) was milled in 1 kg batches according to the method described in EXAMPLE 1.
[…]

A short description of data set [2]: moisture uptake (weight change) at room temperature and humidity. Type of data set: physicochemical. The conditions noted are these: lyophilized simple salt, 24 hours. As for the experimental part: Initial Zn-DTPA simple salt solutions were prepared and lyophilized, producing a hygroscopic mixture not stable at room temperature and humidity (>10% moisture uptake in 24 hours). Zn-DTPA (trisodium zinc diethylenetriaminepentaacetate) were then mixed with (1) hydroxyl-propyl-methylcellulose (HPMC, K100M, Dow), (2) lactose (USP, Hawkins), and (3) silica dioxide (Sipernat 50S, Degussa) and dried using lyophilization. Preparation procedures include (A) mixing ingredients (75 and 90% Zn-DTPA, 1 g total each) into 10 ml DI water and adjusting pH with NaOH, (B) freezing at −20 C, (C) lyophilizing overnight (shelves at room temp), and (D) measuring the moisture uptake (weight change) at room temperature (20-25° C.) and humidity (40-55%) at 1 month.

The nature of data set [3]: in vivo pharmacokinetics of taurine formulations in rats. To be noted: rat, oral, read-out: bioavailability (BA).

Regarding `NC(=O)N1c2ccccc2CC(=O)c2ccccc21` [Oxcarbazepine], the particle size in data set [1] (Pass 1) is recorded as 2250 nm; in data set [1] (Pass 2) it was 524 nm; in data set [1] (Pass 3) it was 400 nm; in data set [1] (Pass 4), 264 nm.
As to `O=C([O-])CN(CCN(CC(=O)[O-])CC(=O)[O-])CCN(CC(=O)[O-])CC(=O)[O-].[Na+].[Na+].[Na+].[Zn+2]` [Zn-DTPA, trisodium zinc diethylenetriaminepentaacetate], the moisture uptake in data set [2] is reported as above 10%.
As for `NCCS(=O)(=O)O` [unformulated taurine, Taurine], the bioavailability in data set [3] was 18%.

For the origin of these results see patent US8074906B2, “Process for milling and preparing powders and compositions produced thereby” (Nanotherapeutics, Inc., priority 2005, dated 2011).
